The values below come from patent US10118947B2, “Modulation of structured polypeptide specificity” (BICYCLE THERAPEUTICS LIMITED, priority 2013, dated 2018).

Where two headings read alike, the source gives them in different places. Numbered stars: 1 amine (or outer) side, 2 acyl side, 3 side chain; on linkers, the order of the positions; unused ones are H or OH. Bridge positions count the residues as written; N and C are the ends. Square brackets hold non-standard residues; d marks the D form. Peptide text beside a SMILES is read from it. TBMB = c1c(C[*:1])cc(C[*:3])cc1C[*:2]; hArg = N=C(N)NCCCC[C@H](N)C(=O)O; Aze = O=C(O)[C@@H]1CCN1

The nature of data set [1]: Plasma stability profiling Method #1 (MALDI-TOF, 35% plasma), rat plasma. Particulars: MALDI TOF assay (Methods #1 and #2), t=0, 21 and 46 hrs. Format: in vitro ADME. Summed up: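 Qualitative test: 200 µM peptide incubated at 37 °C in 35% rat or human citrated plasma supplemented with PBS, sampled at 0, 3, 24 h then daily up to 10 days. Parent mass tracked by MALDI-TOF; value is time until parent peptide no longer detectable.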

Data set [2] is described as follows: Intravenous pharmacokinetics in Sprague Dawley rats. Type of data set: in vivo. Particulars: rat; for half-life: iv, 5.2 mg/kg. As for the experimental part:
Peptides were applied as intravenous boli in PBS-buffered solution at 1.02 mg/mL (containing 2.9% DMSO) at 5.2 mg/kg to Sprague Dawley rats, and serial blood samples were taken from each animal via temporary indwelling tall vein cannulae at 5, 10, 20, 30, 60, 120, and 240 minutes post dose, and transferred to EDTA tubes for plasma generation. Data was acquired for peptide “all D Ac-06-34-18” from 3 rats, for “Ac-(06-34-18) Phe2 Aze3 Tyr4 HArg5 Ala(ψCH2NH)6” from two rats, and for “Ac-(06-34-18) Phe2 Aze3 Tyr4 HArg5 D-Asp9” from two rats.
Plasma samples were then treated with 3 volumes of a 1:1 mixture of acetonitrile and methanol, precipitated proteins were removed by centrifugation, and the supernatant was analysed by UPLC-MS/MS.
Quantification for peptide content in the samples was by reference to a calibration line prepared in control rat plasma. Pharmacokinetic parameters were determined by non-compartmental analysis using the software package PK Solutions 2.0 from Summit Research Services.

Data set [3] is described as follows: Plasma stability profiling Method #1 (MALDI-TOF, 35% plasma), human plasma. Type of data set: in vitro ADME. Particulars: MALDI TOF assay (Methods #1 and #2), t=0, 21 and 46 hrs. As for the experimental part:
A rapid plasma stability profiling assay was developed that employed mass spectrometric detection (MALDI-TOF, Voyager DE, Applied Biosystems) of the parent mass, until the time when the parent peptide mass was no longer observable. Specifically, 200 uM of peptide was incubated in the presence of 35% rat or human plasma (Sera labs, using citrate as anticoagulant) at 37 deg C., which was supplemented with 1×PBS (derived from a 10×PBS Stock, Sigma). […] Samples were frozen at −80 deg C. until the time of analysis. For mass spectrometric analysis that determines the approximate detection window of the peptide, the acetonitrile:H2O-diluted sample of a given time point was spotted directly (0.7 uL) onto the MALDI plate. Matrix (alpha-cyanocinnamic acid, Sigma, prepared as a saturated solution in 1:1 acetonitrile:water containing 0.1% trifluoroacetic acid) was layered over the sample (1 uL). At a similar laser intensity setting on the MALDI TOF, the time could then be determined until parent peptide was no longer detectable. It should be noted that this is a qualitative assay serves to detect relative changes in plasma stability.

In data set [4] the target is T1, human plasma Kallikrein (Homo sapiens, UniProt P03952).
T1 construct: purchased Stratech, UK
In words: Functional enzyme inhibition assay with fluorogenic substrate Z-PheArg-AMC, human plasma Kallikrein. Format: biochemical. Particulars: for Ki: read-out: Ki (nM) (human kallikrein). Summed up:
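Rates of AMC release (excitation 360 nm, emission 460 nm) from 100 μM final Z-PheArg-AMC, 4% DMSO, were taken over the linear phase, typically 5 to 45 minutes. IC50 from four-parameter non-linear regression; Ki also derived.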

The target of data set [5] is T2, rat plasma Kallikrein (Rattus norvegicus, UniProt P14272).
T2 construct: polyhistidine tag (N, cleaved yes); proTEV cleavage site (pro-peptide linker) (N, cleaved yes); made in house; host or cells: HEK-293 (suspension-adapted)
In words: Functional enzyme inhibition assay with fluorogenic substrate Z-PheArg-AMC, rat plasma Kallikrein. The settings on record: Table 26b, loop 1 and loop 2 modified derivatives. Format: biochemical. As for the experimental part: Functional enzyme assays were conducted in 10 mM Tris HCl, 150 mM NaCl, 10 mM MgCl2, 1 mM CaCl2) and 1 mg/mL BSA (all Sigma UK) pH7.4 at 25° C. in solid black 96 well plates. Briefly 26.5 pM human plasma Kallikrein (purchased from Stratech, UK) or 500 pM rat plasma Kallikrein (expressed and purified in house) were incubated in the absence or presence of increasing concentrations of test peptide for 15 minutes before addition of the fluorogenic substrate Z-PheArg-AMC (Enzo Lifesciences UK) to a final assay concentration of 100 μM in 4% DMSO. Release of AMC was measured using a Pherastar FS (BMG Labtech), excitation 360 nm, emission 460 nm. The rate of the linear phase of the reaction, typically 5 to 45 minutes, was calculated in MARS data analysis software (BMG labtech). The rate was then used to calculate the IC50 and Ki in Prism (GraphPad). A four parameter inhibition non-linear regression equation was used to calculate the IC50.
Peptides were dissolved as the TFA-salts in their powder form, and stock solutions were usually prepared in water. All solutions were centrifuged and filtered ([…] syringe filters) prior absorption measurement at 280 nm. Extinction coefficients were calculated based on the Trp/Tyr content of the peptide, and that of TMB (the TMB core, when contained in a peptide, has an ε of ˜300 M^−1cm^−1). For peptides containing non-natural amino acids with suspected chromophoric properties (i.e. NorHar, 4PhenylPro, 3Pal, 4Pal, Tic, 4GuanPhe, 4,4-BPAI, 3,3-DPA, 1NAI, 2NAI, 4BenzylPro, Ind) concentrations were determined by weighing the powder and dissolving the peptide in a defined quantity of water.

The target in data set [6] is T1, human plasma Kallikrein. Particulars: Table 1, as disclosed in PCT/EP2012/069898; cited from earlier work.
For data set [7] the following is noted: Table 1; Method #3; cited from earlier work.
For data set [8], the target named is T2, rat plasma Kallikrein. Particulars: Table 1; read-out: Ki (nM) (rat kallikrein); cited from earlier work.
Data set [9] in a line: Quantitative plasma stability Method #3 (LC-MS, 95% plasma), rat plasma. Type of data set: in vitro ADME. The settings on record: rat, plasma; Table 15; method #3; read-out: t1/2 (hrs) in rat plasma (converted). As for the experimental part:
To obtain plasma stability quantitatively, peptide stock solutions (1 mM in DMSO) were shipped to Biofocus, UK, who performed the analysis. Peptides were diluted to 100 uM with water, and diluted 1:20 in plasma (5 uM final concentration, with the plasma at 95%), sampled as appropriate, precipitated as above, and quantified using a Waters Xevo TQ-MS.

Another data set has as its target human PK (hPK) (Homo sapiens, UniProt P03952). Particulars: cited from earlier work.
A further data set deals with thrombin (Homo sapiens, UniProt P00734). Particulars: highest concentration tested (10 μM); cited from earlier work.
Another data set has as its target factor XIa (hfXIa) (Homo sapiens, UniProt P03951). The settings on record: highest concentration tested (10 μM); cited from earlier work.
The target of another data set is rat PK (Rattus norvegicus, UniProt P14272). The settings on record: highest concentration tested (10 μM); cited from earlier work.
The mark [10] stands for this setting: Sprague Dawley, plasma, intravenous bolus 5.2 mg/kg, read-out: elimination half-life.
Setting [11] is: Sprague Dawley, plasma, intravenous, read-out: t1/2 elimination.

T1 sequence (P03952 20-638): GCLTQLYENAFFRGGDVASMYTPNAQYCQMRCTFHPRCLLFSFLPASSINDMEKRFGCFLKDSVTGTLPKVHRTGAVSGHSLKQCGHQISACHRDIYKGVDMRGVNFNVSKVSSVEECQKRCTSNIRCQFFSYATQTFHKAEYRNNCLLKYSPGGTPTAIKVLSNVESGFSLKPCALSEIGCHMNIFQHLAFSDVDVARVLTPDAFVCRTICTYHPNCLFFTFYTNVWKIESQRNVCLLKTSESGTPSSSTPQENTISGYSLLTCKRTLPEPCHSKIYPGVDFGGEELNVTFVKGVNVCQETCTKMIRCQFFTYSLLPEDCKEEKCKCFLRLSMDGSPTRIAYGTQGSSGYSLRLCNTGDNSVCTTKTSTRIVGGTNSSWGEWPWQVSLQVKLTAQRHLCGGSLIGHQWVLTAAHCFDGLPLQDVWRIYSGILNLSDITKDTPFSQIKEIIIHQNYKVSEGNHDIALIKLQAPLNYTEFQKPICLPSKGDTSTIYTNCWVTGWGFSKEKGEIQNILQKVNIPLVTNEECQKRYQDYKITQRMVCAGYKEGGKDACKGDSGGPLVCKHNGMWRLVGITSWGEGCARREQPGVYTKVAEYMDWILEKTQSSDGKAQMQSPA
human PK (hPK), sequence (P03952 20-638): as above
T2 sequence (P14272 391-638 limits assumed): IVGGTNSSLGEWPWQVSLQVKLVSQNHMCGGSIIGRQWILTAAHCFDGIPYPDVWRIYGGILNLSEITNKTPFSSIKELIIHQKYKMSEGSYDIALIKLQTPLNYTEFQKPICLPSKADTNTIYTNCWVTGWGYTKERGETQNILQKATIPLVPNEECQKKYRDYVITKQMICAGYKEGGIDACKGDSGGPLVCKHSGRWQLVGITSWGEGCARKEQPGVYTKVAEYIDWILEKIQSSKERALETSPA
rat PK, sequence (P14272 20-638): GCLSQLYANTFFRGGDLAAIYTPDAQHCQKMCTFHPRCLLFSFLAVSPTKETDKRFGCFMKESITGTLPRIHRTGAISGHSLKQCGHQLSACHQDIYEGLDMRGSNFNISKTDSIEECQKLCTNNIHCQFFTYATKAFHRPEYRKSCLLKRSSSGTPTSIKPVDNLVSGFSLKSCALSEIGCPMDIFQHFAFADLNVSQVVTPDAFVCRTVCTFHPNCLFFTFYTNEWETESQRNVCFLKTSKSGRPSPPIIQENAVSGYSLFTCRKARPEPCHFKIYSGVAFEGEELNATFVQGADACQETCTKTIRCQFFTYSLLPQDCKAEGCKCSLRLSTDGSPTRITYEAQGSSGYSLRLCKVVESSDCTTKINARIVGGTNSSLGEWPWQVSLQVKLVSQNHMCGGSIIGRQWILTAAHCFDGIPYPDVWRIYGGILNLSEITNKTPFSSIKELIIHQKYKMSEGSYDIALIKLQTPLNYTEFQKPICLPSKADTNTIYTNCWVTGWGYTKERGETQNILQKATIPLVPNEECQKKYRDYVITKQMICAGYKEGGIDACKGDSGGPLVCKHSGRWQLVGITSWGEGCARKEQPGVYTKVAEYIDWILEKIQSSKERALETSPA
factor XIa (hfXIa), sequence (P03951 388-625 limits assumed): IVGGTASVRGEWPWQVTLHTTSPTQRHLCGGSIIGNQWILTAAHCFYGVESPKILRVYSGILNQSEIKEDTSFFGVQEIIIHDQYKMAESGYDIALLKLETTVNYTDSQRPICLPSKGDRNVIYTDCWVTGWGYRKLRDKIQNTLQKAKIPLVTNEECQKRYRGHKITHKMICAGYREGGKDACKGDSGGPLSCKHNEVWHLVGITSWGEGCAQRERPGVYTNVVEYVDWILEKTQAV
factor XIa (hfXIa), sequence (P03951 19-387 partner limits assumed): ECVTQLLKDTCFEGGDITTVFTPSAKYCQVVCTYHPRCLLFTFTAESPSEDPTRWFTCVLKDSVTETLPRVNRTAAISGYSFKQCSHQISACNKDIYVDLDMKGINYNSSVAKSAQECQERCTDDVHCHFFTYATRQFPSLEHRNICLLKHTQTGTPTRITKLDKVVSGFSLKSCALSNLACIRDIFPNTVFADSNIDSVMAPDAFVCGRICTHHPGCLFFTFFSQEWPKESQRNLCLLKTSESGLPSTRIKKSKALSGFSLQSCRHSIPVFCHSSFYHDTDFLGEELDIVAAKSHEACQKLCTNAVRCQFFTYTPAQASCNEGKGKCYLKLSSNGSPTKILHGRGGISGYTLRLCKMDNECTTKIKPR

In the case of `CC(=O)N[C@H]1CSCc2cc3cc(c2)CSC[C@H](NC(=O)[C@H](CCCCNC(=N)N)NC(=O)[C@H](Cc2ccc(O)cc2)NC(=O)[C@@H]2CCN2C(=O)[C@H](Cc2ccccc2)NC(=O)[C@H](CO)NC1=O)C(=O)N[C@@H](C)CN[C@@H](Cc1c[nH]cn1)C(=O)N[C@@H](CCC(N)=O)C(=O)N[C@@H](CC(=O)O)C(=O)N[C@@H](CC(C)C)C(=O)N[C@H](C(N)=O)CSC3`, the “stability in rat plasma compared to wildtype peptide” value in data set [1] is given as “remarkably enhanced stability”. The molecule also displayed a clearance in data set [2] (Sprague Dawley, plasma, intravenous bolus 5.2 mg/kg) of 5.8 mL/min/kg. Moreover, the half-life in data set [2] (setting [10]) came out at 48 min. Further, in data set [2] (setting [11]), the half-life was 48 min. Further, in [2] (intravenous), the “Clearance based on AUC0-∞” value was found to be 6.2 mL/min/kg and the “Volume of distribution based on AUC0-∞” value is reported as 0.44 L/kg. For the same molecule, the “stability in human plasma compared to wildtype peptide” value in data set [3] is listed as “remarkably enhanced stability”.
Consider `CC(=O)N[C@H]1CSCc2cc3cc(c2)CSC[C@H](NC(=O)[C@H](CCCCNC(=N)N)NC(=O)[C@H](Cc2ccc(O)cc2)NC(=O)[C@@H]2CCN2C(=O)[C@H](Cc2ccccc2)NC(=O)[C@H](CO)NC1=O)C(=O)N[C@@H](CC(C)C)C(=O)N[C@@H](Cc1c[nH]cn1)C(=O)N[C@@H](CCC(N)=O)C(=O)N[C@H](CC(=O)O)C(=O)N[C@@H](CC(C)C)C(=O)N[C@H](C(N)=O)CSC3` (Ac-CSF[Aze]Y[hArg]CLHQ[dD]LC-NH2; linker 1-7-13 via TBMB), for which the “stability in rat plasma compared to wildtype peptide” value in [1] is recorded as “remarkably enhanced stability”. Further, the values for the half-life in data set [2] (setting [10]) and in data set [2] (setting [11]) were approximately 27 min and 27 min, respectively. Moreover, the Ki on human plasma Kallikrein [4] (Table 26b, loop 1 and loop 2 modified derivatives) is 0.9 nM; at rat plasma Kallikrein [5] it was 14 nM. Further, in data set [3], the “stability in human plasma compared to wildtype peptide” value is given as “remarkably enhanced stability”.
`CC(=O)N[C@H]1CSCc2cc3cc(c2)CSC[C@H](NC(=O)[C@H](Cc2ccc(NC(=N)N)cc2)NC(=O)[C@H](C)NC(=O)[C@@H]2CCCN2C(=O)[C@H](Cc2c[nH]c4ccccc24)NC(=O)[C@H](CO)NC1=O)C(=O)N[C@@H](CC(C)C)C(=O)N[C@@H](Cc1c[nH]cn1)C(=O)N[C@@H](CCC(N)=O)C(=O)N[C@@H](CC(=O)O)C(=O)N[C@@H](CC(C)C)C(=O)N[C@H](C(N)=O)CSC3` [Ac-(06-34-18) 4GuanPhe5]: the results for the Ki on human plasma Kallikrein [6], on rat plasma Kallikrein [8] and at human plasma Kallikrein [4] (Table 15) were 0.34 nM, 3 nM and 0.34 nM, respectively. Also, the “t1/2 (hrs) in rat plasma” value in data set [7] was 2.8 h. Further, at human plasma Kallikrein [4], the “reduction in potency/affinity compared to wildtype” value is on record as 2 fold. Besides, in [9], the half-life at 5 uM is 2.8 h.
Regarding H-ACSDRFRNCPADEALCG-NH2 [PK15], on human PK (hPK) (Heinis et al. 2009, read-out: Kl human PK (hPK)), the Ki is 3 nM. The IC50 on human PK (hPK) (background, read-out: IC50 binding constant for human Kallikrein) is 1.7 nM. Further, at thrombin, the inhibition of thrombin result was “did not inhibit”. Also, the “inhibition of factor XIa (hfXIa)” value on factor XIa (hfXIa) is given as “did not inhibit”. Besides, the “inhibition of rat PK” value on rat PK was “did not inhibit”.
